The results in this text go back to patent US9550793B2, “Spirocyclic compounds, compositions and medicinal applications thereof” (Advinus Therapeutics Limited, priority 2012, dated 2017).

One experiment addresses T1, hDGAT1 (Homo sapiens, UniProt O75907).
T1 construct: endogenous in cells; host or cells: HEK293H cells
T1 sequence (O75907 1-488): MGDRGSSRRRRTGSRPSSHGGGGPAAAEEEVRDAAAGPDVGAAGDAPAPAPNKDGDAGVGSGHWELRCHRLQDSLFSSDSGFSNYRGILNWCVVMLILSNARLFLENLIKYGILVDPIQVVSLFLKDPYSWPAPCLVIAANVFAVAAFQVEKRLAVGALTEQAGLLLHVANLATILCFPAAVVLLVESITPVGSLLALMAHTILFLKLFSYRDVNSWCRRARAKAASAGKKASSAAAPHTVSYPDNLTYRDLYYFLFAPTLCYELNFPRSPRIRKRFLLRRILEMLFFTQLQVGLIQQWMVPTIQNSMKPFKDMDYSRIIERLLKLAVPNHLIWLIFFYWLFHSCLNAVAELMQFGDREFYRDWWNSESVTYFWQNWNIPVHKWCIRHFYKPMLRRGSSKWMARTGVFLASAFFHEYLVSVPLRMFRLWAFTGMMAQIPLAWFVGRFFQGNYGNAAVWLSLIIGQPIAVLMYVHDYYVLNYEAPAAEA
The experiment is described as follows: Cell based hDGAT1 inhibitory activity in HEK293H cells (13C-oleic acid to triolein, LC-MS).
Conditions: not given
The procedure:
Measurement of Cell Based hDGAT1 Inhibitory Activity:
HEK293H cells were seeded in a 96-well poly-D-lysine plate at a density of 80000 cells per well. Following day, cells were washed with assay buffer-DMEM high glucose supplemented with 25 mM Hepes (pH7.5) carrying 0.25% fatty acid-free bovine serum. The cells were starved in assay buffer at 37° C./5% CO2 followed by removal of media and treatment with appropriate concentrations of the test compound at a final concentration of 0.2% DMSO for 20 min. 13C-Oleic acid pre-complexed with BSA (300 uM) was added and cells were incubated further at […]/5% CO2 for 120 min. The supernatant was removed and the cells were allowed to air dry briefly. The extraction solvent (90% isopropyl alcohol and 10% tetrahydrofuran with 20 nM of the internal standard [1,3-di-heptadecanoyl-2-(10Z-heptadecanoyl)-sn-glycerol-d5) was added to the cells, and allowed to shake at room temperature for 15 min. The extract was then transferred to glass vials for LC-MS analysis. An Applied Biosystems API3200 LC/MS system interfaced with a triplequadrupole mass spectrophotometer through a Turbo ion spray source was employed for the LC separation of the analytes using a Hi-Purity ADVANCE column eluted with 10 mM ammonium formate in IPA-H2O (80:20) at a flow rate of 0.4 mL/min. A characteristic in-source fragment ion m/z 639.7 formed from the precursor ion ^13C-54-triolein (m/z 956.8, ammonium adduct) at a collision energy of 30 and declustering potential 70 was monitored. IC50 values of the compounds were determined based on percent inhibition calculated on the basis of area ratio of product (TG) and internal standard (IS).
`COC(=O)C1CC2(CCC(c3ccc(NC(=O)c4nnc(Nc5ccc(F)c(F)c5)o4)cc3)CC2)C1` (stereo not drawn) [Example A9, methyl 7-[4-[[5-(3,4-difluoroanilino)-1,3,4-oxadiazole-2-carbonyl]amino]phenyl]spiro[3.5]nonane-2-carboxylate] came in with a 50% inhibitory concentration (IC50) of 31 nM.
Same read-out and setting: the value for `CCOC(=O)C1CC2(CCN(c3ccc(NC(=O)c4nnc(Nc5ccc(F)c(F)c5)o4)cn3)CC2)C1` [Example A12, ethyl 7-[5-[[5-(3,4-difluoroanilino)-1,3,4-oxadiazole-2-carbonyl]amino]-2-pyridyl]-7-azaspiro[3.5]nonane-2-carboxylate] was 22 nM.
Turning to `O=C(Nc1ccc(N2CCC3(CC2)CC(C(=O)O)C3)nc1)c1nnc(Nc2ccc(OCC(F)(F)F)nc2)o1` [Example B13, 7-[5-[[5-[[6-(2,2,2-trifluoroethoxy)-3-pyridyl]amino]-1,3,4-oxadiazole-2-carbonyl]amino]-2-pyridyl]-7-azaspiro[3.5]nonane-2-carboxylic acid], the IC50 was 47 nM.
Still for that read-out and setting: the value for `O=C(Nc1ccc(C2CCC3(CC2)CC3C(=O)O)cc1)c1nnc(Nc2ccc(F)c(F)c2)o1` (stereo not drawn) [Example B14, 6-[4-[[5-(3,4-difluoroanilino)-1,3,4-oxadiazole-2-carbonyl]amino]phenyl] spiro [2.5] octane-2-carboxylic acid] was 21 nM.
Still for that read-out and setting: the value for `O=C(Nc1ccc(C2CCC3(CC2)CC3C(=O)O)cc1)c1nnc(Nc2ccc(OCC(F)(F)F)nc2)o1` (stereo not drawn) [Example B15, 6-[4-[[5-[[6-(2,2,-trifluoroethoxy)-3-pyridyl]amino]-1,3,4-oxadiazole-2-carbonyl]amino]phenyl] spiro [2.5] octane-2-carboxylic acid] was 10 nM; that for `O=C(Nc1ccc(C2CCC3(CC2)CC3C(=O)O)cc1)c1nnc(Nc2cccc(Cl)c2)o1` (stereo not drawn) [Example B16, 6-[4-[[5-(3-chloroanilino)-1,3,4-oxadiazole-2-carbonyl]amino]phenyl] spiro [2.5] octane-2-carboxylic acid] was 16 nM; that for `O=C(Nc1ccc(N2CCC3(CC2)CC3C(=O)O)nc1)c1nnc(Nc2ccc(OCC(F)(F)F)nc2)o1` (stereo not drawn) [Example B21, 6-[5-[[5-[[6-(2,2,2-trifluoroethoxy)-3-pyridyl]amino]-1,3,4-oxadiazole-2-carbonyl]amino]-2-pyridyl]-6-azaspiro [2.5] octane-2-carboxylic acid] was 64 nM.
For `O=C(Nc1ccc(N2C3CCC2CC2(CC(C(=O)O)C2)C3)nc1)c1nnc(Nc2ccc(F)c(F)c2)o1` (stereo not drawn) [Example B31, 8-[5-[[5-(3,4-difluoroanilino)-1,3,4-oxadiazole-2-carbonyl]amino]-2-pyridyl] spiro [8-azabicyclo [3.2.1]octane-3,3′-cyclobutane]-1′-carboxylic acid], the IC50 worked out at 37 nM.
Same read-out and setting: the value for `O=C(Nc1ccc(N2CCC3(CC2)CC(C(=O)N2CCC(O)CC2)C3)nc1)c1nnc(Nc2ccc(F)c(F)c2)o1` [Example C6] was 33 nM; that for `O=C(Nc1ccc(N2CCC3(CC2)CC(C(=O)N2CC(O)C2)C3)nc1)c1nnc(Nc2ccc(F)c(F)c2)o1` [Example C8] was 11 nM.
On the same count and under the same terms, for `O=C(Nc1ccc(N2CCC3(CC2)CC(F)(F)C3)nc1)c1nnc(Nc2ccc(F)c(F)c2)o1` [Example D1, 5-(3,4-difluoroanilino)-N-[6-(2,2-difluoro-7-azaspiro[3.5]nonan-7-yl)-3-pyridyl]-1,3,4-oxadiazole-2-carboxamide] the value was 85 nM; for `O=C(Nc1ccc(N2CCC3(CC2)CC(F)(F)C3)nc1)c1nnc(Nc2ccc(OCC(F)(F)F)nc2)o1` [Example D2], 64 nM; for `CC1CC2(CCN(c3ccc(NC(=O)c4nnc(Nc5ccc(F)c(F)c5)o4)cn3)CC2)C1` [Example D3], 32 nM.
Still for that read-out and setting: for `CC1CC2(CCN(c3ccc(NC(=O)c4nnc(Nc5ccc(OCC(F)(F)F)nc5)o4)cn3)CC2)C1` [Example D4] the value was 26 nM.
In turn, `O=C(Nc1ccc(N2CCC3(CC2)CC(O)C3)nc1)c1nnc(Nc2ccc(F)c(F)c2)o1` [Example D5] gave a half-inhibitory concentration (IC50) of 4 nM.
Same read-out and setting: for `O=C(Nc1ccc(N2CCC3(CC2)CC(O)C3)nc1)c1nnc(Nc2ccc(OCC(F)(F)F)nc2)o1` [Example D6] the value was 4.2 nM.
As for `O=C(Nc1ccc(N2CCC3(CC2)CC(CO)C3)nc1)c1nnc(Nc2ccc(F)c(F)c2)o1` [Example E1, 5-(3,4-difluoroanilino)-N-[6-[2-(hydroxymethyl)-7-azaspiro[3.5]nonan-7-yl]-3-pyridyl]-1,3,4-oxadiazole-2-carboxamide], inhibition was half-maximal at 10 nM (IC50).
`NC(=O)C1CC2(CCN(c3ccc(NC(=O)c4nnc(Nc5ccc(F)c(F)c5)o4)cn3)CC2)C1` [Example F1, N-[6-(2-carbamoyl-7-azaspiro[3.5]nonan-7-yl)-3-pyridyl]-5-(3,4-difluoroanilino)-1,3,4-oxadiazole-2-carboxamide] gave an IC50 of 44 nM.
On the same count and under the same terms, the value for `NC(=O)CC1CCC2(CC1)CCN(c1ccc(NC(=O)c3nnc(Nc4ccc(F)c(F)c4)o3)cn1)CC2` [Example F2, N-[6-[3-(2-amino-2-oxo-ethyl)-9-azaspiro[5.5]undecan-9-yl]-3-pyridyl]-5-(3,4-difluoroanilino)-1,3,4-oxadiazole-2-carboxamide] was 19 nM.

Still in this experiment, the particulars now being: 1 uM.
`CC1(C)CN(c2ccc(C3CCC4(CC3)CC4C(=O)O)cc2)C(=O)c2c(N)ncnc21` (stereo not drawn) [Example L5, 6-[4-(4-amino-8,8-dimethyl-5-oxo-7H-pyrido[4,3-d]pyrimidin-6-yl)phenyl]spiro[2.5]octane-2-carboxylic acid]: the “HEK293H cell % Inhibition at 1 uM” value is given as “No inhibition at 1 μM”.

The same experiment, now with this note: HEK293-H, 1 uM.
`O=C(Nc1ccc([C@H]2CC[C@]3(CC2)CC3C(=O)O)nc1)c1nnc(Nc2ccccc2)o1` (stereo partly drawn) [Example B24, Trans-6-[5-[(5-anilino-1,3,4-oxadiazole-2-carbonyl)amino]-2-pyridyl] spiro [2.5] octane-2-carboxylic acid]: at 1 µM the inhibition was 49%.
The same measure, in the same setting: the value for `O=C(Nc1ccc([C@H]2CC[C@]3(CC2)CC3C(=O)O)nc1)c1nnc(Nc2ccc(F)c(F)c2)o1` (stereo partly drawn) [Example B26, Trans-6-[5-[[5-(3,4-difluoroanilino)-1,3,4-oxadiazole-2-carbonyl]amino]-2-pyridyl] spiro [2.5] octane-2-carboxylic acid] was 37%; that for `O=C(Nc1ccc(N2CCC3(CC2)CC(C(=O)N2CCCC2)C3)nc1)c1nnc(Nc2ccc(F)c(F)c2)o1` [Example C1, 5-(3,4-difluoroanilino)-N-[6-[2-(pyrrolidine-1-carbonyl)-7-azaspiro[3.5]nonan-7-yl]-3-pyridyl]-1,3,4-oxadiazole-2-carboxamide] was 86%; that for `CC1CCCCN1C(=O)C1CC2(CCN(c3ccc(NC(=O)c4nnc(Nc5ccc(F)c(F)c5)o4)cn3)CC2)C1` (stereo not drawn) [Example C2] was 88%.
On the same count and under the same terms, the value for `O=C(Nc1ccc(N2CCC3(CC2)CC(C(=O)N2CCOCC2)C3)nc1)c1nnc(Nc2ccc(F)c(F)c2)o1` [Example C3] was 84%.
Still for that read-out and setting: for `O=C(Nc1ccc(N2CCC3(CC2)CC(C(=O)NCC(F)(F)F)C3)nc1)c1nnc(Nc2ccc(F)c(F)c2)o1` [Example C4] the value was 84%; for `COC1CCN(C(=O)C2CC3(CCN(c4ccc(NC(=O)c5nnc(Nc6ccc(F)c(F)c6)o5)cn4)CC3)C2)CC1` [Example C5], 90%.
In turn, `O=C1CCN(C(=O)C2CC3(CCN(c4ccc(NC(=O)c5nnc(Nc6ccc(F)c(F)c6)o5)cn4)CC3)C2)CC1` [Example C9] registered an inhibition at 1 µM of 92%.
Still for that read-out and setting: for `O=C(Nc1ccc(N2CCC3(CC2)CC(F)C3)nc1)c1nnc(Nc2ccc(F)c(F)c2)o1` [Example D7] the value was 87%.
The same measure, in the same setting: for `O=C(Nc1ccc(N2CCC3(CC2)CC(F)C3)nc1)c1nnc(Nc2ccc(OCC(F)(F)F)nc2)o1` [Example D8] the value was 77%; for `Cn1nnnc1C1CC2(CCN(c3ccc(NC(=O)c4nnc(Nc5ccc(F)c(F)c5)o4)cn3)CC2)C1` [Example D9], 91%.
The same measure, in the same setting: for `Nc1ncnc2ncn(-c3ccc(N4CCC5(CC4)CC(F)C5)nc3)c(=O)c12` [Example K4] the value was 19%.
Take `CC1(C)CN(c2ccc(C3CCC4(CCC(CC(=O)O)CC4)CC3)cc2)C(=O)c2c(N)ncnc21` (stereo not drawn) [Example L6]: at 1 µM the inhibition was 3%.
